Key:
[1] = system: STC-1 cells; experiment: CCK secretion in STC-1 cells (EIA); format: cell-based; details: 60 minutes
Experimental: STC-1 cells were cultured in Dulbecco's modified Eagle's medium (DMEM) containing 10% fetal bovine serum (FBS) and 1% penicillin-streptomycin in an incubator maintained at 37° C. and 5% CO2. […] An enzyme immunoassay (EIA) kit (Phoenix Pharmaceuticals Inc., Belmont Calif.) was used.

[2] = system: STC-1 cells; experiment: Change in Ca2+ level in STC-1 cells after inhibitor pretreatment (RR, HC-030031, TPPO, U-73122); format: cell-based; details: 0.1 mM
Experimental: (§1) The cells were inoculated onto a poly-D-Lysine-coated black 96-well clear-bottom plate (Thermo) at a concentration of 8.0×10^4 cells/well and incubated under the condition of 37° C. and 5% CO2. 72 hours later, the cells were incubated at 37° C. for 60 minutes using the Calcium-5 assay kit (Molecular Devices) and the change in Ca^2+ level was measured using Flexstation III. The change in Ca^2+ level was monitored for about 120 seconds at fluorescence wavelengths of 488 nm (ex) and 525 nm (em) and for 2 seconds after injecting the compound for 20 seconds.
The STC-1 cells were pretreated for 60 minutes with 100 μM ruthenium red (RR) or with 50 μM HC-030031. Then, the cells were treated with 1 mg/mL of the extract.
The STC-1 cells were pretreated for 60 minutes with 400 μM TPPO or with 20 μM U-73122.
Then, the cells were treated with 1 mg/mL of the extract.
The STC-1 cells were pretreated for 60 minutes with 100 μM ruthenium red or with 50 μM HC-030031. Then, the cells were treated with 1 mg/mL of the extract.
The STC-1 cells were pretreated for 60 minutes with 400 μM TPPO or with 20 μM U-73122. Then, the cells were treated with 1 mg/mL of the extract.

[3] = system: RIN14B cells; experiment: 5-HT secretion in RIN14B cells (Serotonin EIA); format: cell-based; details: 300 μM, 60 minutes
Experimental: RIN14B cells were cultured in RPMI medium 1640 containing 10% fetal bovine serum (FBS) and 1% penicillin-streptomycin in an incubator maintained at 37° C. and 5% CO2.
(§2) The cultured cells were inoculated onto a 24-well plate at a concentration of 2×10^5 cells/well and incubated under the condition of 37° C. and 5% CO2. 72 hours later, the cells were washed 2 times with 5-HT assay buffer (HBSS, 0.1% BSA, 1.25 mM CaCl2, 2 μM fluoxetine, pH 7.4) and then incubated at 37° C. for 60 minutes after adding the test substance to the 5-HT assay buffer. After the incubation, the medium was centrifuged at 10,000 rpm for 10 minutes and the resultant supernatant was stored at −70° C. for use in analysis. A Serotonin (EIA) kit (Enzo Life Sciences) was used.

[4] = system: STC-1 cells; experiment: Change in Ca2+ level in STC-1 cells; format: cell-based
Experimental: as §1

[5] = system: RIN14B cells; experiment: 5-HT secretion in RIN14B cells after inhibitor pretreatment (RR, HC-030031); format: cell-based; details: 300 μM
Experimental: as §2
The RIN14B cells were pretreated for 30 minutes with 100 μM ruthenium red (RR) or with 50 μM HC-030031. […]

[6] = system: STC-1 cells; experiment: CCK secretion in STC-1 cells after inhibitor pretreatment (RR, HC-030031, TPPO, U-73122); format: cell-based; details: 0.1 mM
Experimental: as §2, with “HEPES” for “5-HT assay”, “(4.5 mM KCl, 1.2” for “(HBSS, 0.1% BSA, 1.25”, “1.2 mM MgCl2, 10 mM glucose, 140 mM NaCl, 20 mM HEPES-Tris,” for “2 μM fluoxetine,”, “10000” for “10,000”, “An enzyme immunoassay” for “A Serotonin”, “(Phoenix Pharmaceuticals Inc., Belmont Calif.)” for “(Enzo Life Sciences)”
The STC-1 cells were pretreated for 30 minutes with 100 μM ruthenium red (RR) or with 50 μM HC-030031. After adding 50 μg/mL of the extract, the cells were incubated at 37° C. for 60 minutes.
The STC-1 cells were pretreated for 30 minutes with 100 μM ruthenium red (RR) or with 50 μM HC-030031. After adding 500 μg/mL of the extract, the cells were incubated at 37° C. for 60 minutes.
The STC-1 cells were pretreated for 30 minutes with 400 μM TPPO or with 20 μM U-73122.
After adding 500 μg/mL of the extract, the cells were incubated at 37° C. for 60 minutes.
The STC-1 cells were pretreated for 30 minutes with 100 μM ruthenium red (RR) or with 50 μM HC-030031. Then, the cells were incubated at 37° C. for 60 minutes after adding 500 μg/mL of the extract.
Then, the cells were incubated at 37° C. for 60 minutes after adding 500 μg/mL of the extract.

[7] = system: RIN14B cells; experiment: Change in Ca2+ level in RIN14B cells; format: cell-based
Experimental: as §1, with “a” for “a poly-D-Lysine-coated”, “(Corning)” for “(Thermo)”, “5.0×10^4” for “8.0×10^4”, “48” for “72”

[8] = system: RIN14B cells; experiment: Change in Ca2+ level in RIN14B cells after inhibitor pretreatment (RR, HC-030031); format: cell-based; details: 300 μM
Experimental: as §1, with “a” for “a poly-D-Lysine-coated”, “(Corning)” for “(Thermo)”, “5.0×10^4” for “8.0×10^4”, “48” for “72”
The RIN14B cells were pretreated for 60 minutes with 100 μM ruthenium red (RR) or with 50 μM HC-030031. […]

[9] = system: STC-1 cells; experiment: Membrane potential change in STC-1 cells; format: cell-based
[10] = target: T1, GPR119 (Homo sapiens, UniProt Q8TDV5); experiment: GLP-1 secretion in NCI-H716 cells treated with GPR119 siRNA; format: cell-based
T1 construct: The transfection of the cells with GPR119 siRNA leads to knockdown of the GPR119 gene; endogenous in cells; host or cells: NCI-H716 cells
T1 sequence (Q8TDV5 1-335): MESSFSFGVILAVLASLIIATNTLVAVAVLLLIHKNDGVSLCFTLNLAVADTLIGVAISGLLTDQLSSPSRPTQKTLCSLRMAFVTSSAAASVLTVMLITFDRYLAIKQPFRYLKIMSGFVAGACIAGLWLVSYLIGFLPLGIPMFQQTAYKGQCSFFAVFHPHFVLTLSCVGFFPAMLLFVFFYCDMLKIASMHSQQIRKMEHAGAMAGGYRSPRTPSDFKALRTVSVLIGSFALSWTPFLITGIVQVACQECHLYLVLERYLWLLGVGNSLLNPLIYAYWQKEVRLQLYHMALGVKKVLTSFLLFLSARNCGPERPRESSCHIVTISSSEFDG
Experimental: The NCI-H716 cells were cultured on a 96-well plate for 3 days to a concentration of 2×10^5 cells/mL. On the day of the experiment, the cells were washed with phosphate-buffered saline (PBS) and incubated at 37° C. for 1 hour in Krebs-Ringer bicarbonate buffer (KRB, 128.8 mmol/L NaCl, 4.8 mmol/L KCl, 1.2 mmol/L KH2PO4, 1.2 mmol/L MgSO4, 2.5 mmol/L CaCl2, 5 mmol/L NaHCO3, 10 mmol/L HEPES, 0.2% BSA, pH 7.4) to which the sample was added. Then, for GLP-1 assay, the supernatant (100 μL) was taken and analyzed using an active GLP-1 ELISA kit (EGLP-35K, Millipore). The concentration of GLP-1 was calculated GLP-1 standard (pmol/mL) and the result was expressed as fold of control by comparing the concentration of GLP-1 secreted by stimulation with the sample and the concentration of GLP-1 secreted by stimulation with a control substance.
siRNA sequence targeting human α-gustducin (GNAT3, accession no. NM 001102386, Dharmacon on-target SMARTpool siRNA reagent), GPR119 ([…]/GeneBank accession no. NM_176817) and non-target SMARTpool siRNA were purchased from Dharmacon (Lafayette, Colo.). The NCI-H716 cells were transfected with the siRNAs for 48 hours using the Neon™ transfection system (Invitrogen, Carlsbad, Calif.). Then, GLP-1 secretion and the concentrations of Ca^2+ and cAMP were measured.

[11] = system: NCI-H716 cells; experiment: Intracellular cAMP in NCI-H716 cells (EIA); format: cell-based, Human; details: 20 μM
Experimental: The NCI-H716 cells were plated onto a 24-well culture plate at a concentration of 1×10^6 cells/mL and cultured for 3 days. On the day of the experiment, the cells were incubated with the sample in KRB buffer at 37° C. using a 5% CO2 incubator. After the incubation, the medium was removed and the cells were washed 3 times with KRB buffer. They were then incubated at 150 rpm at room temperature for 20 minutes after adding 0.5 mL of 0.1 N HCl. The incubated cells were then centrifuged at 1000 g for 10 minutes and the supernatant was analyzed by an enzyme immunoassay (EIA) using the cyclic AMP kit.

C=CCN=C=S [AITC]
CCK secretion, Fold of control (mean ± S.E.M.) ([1]; 0.1 mM): 21.57 ± 0.59 Fold of control
CCK secretion, Fold of control (mean ± S.E.M.) ([1]; 1 mM): 21.99 ± 0.64 Fold of control
CCK secretion, Fold of control (mean ± S.E.M.) ([1]; 10 mM): 25.59 ± 0.59 Fold of control
Inhibition (%) of Ca^2+ change ([2]; HC-030031 50 μM): 83.50%
Inhibition (%) of Ca^2+ change ([2]; RR 100 μM): 93.14%
Change in Ca^2+ level, ΔRFU (mean ± S.E.M.) ([2]; inhibitor: Untreated): 400.52 ± 6.90 ΔRFU
Change in Ca^2+ level, ΔRFU (mean ± S.E.M.) ([2]; pretreated 50 μM HC-030031): 66.07 ± 2.56 ΔRFU
Change in Ca^2+ level, ΔRFU (mean ± S.E.M.) ([2]; pretreated 100 μM RR): 27.47 ± 1.77 ΔRFU
5-HT secretion, Fold of control (mean ± S.E.M.) [3]: 8.11 ± 2.70 Fold of control
Change in Ca^2+ level, ΔRFU (mean ± S.E.M.) ([4]; 0.1 mM): 105.41 ± 2.12 ΔRFU
Change in Ca^2+ level, ΔRFU (mean ± S.E.M.) ([4]; 1 mM): 151.04 ± 5.65 ΔRFU
Change in Ca^2+ level, ΔRFU (mean ± S.E.M.) ([4]; 10 mM): 168.68 ± 5.79 ΔRFU
Inhibition (%) of 5-HT secretion ([5]; HC-030031 50 μM): −11.27%
Inhibition (%) of 5-HT secretion ([5]; RR 100 μM): 55.56%
5-HT secretion, Fold of control (mean ± S.E.M.) ([5]; inhibitor: Untreated): 8.11 ± 2.70 Fold of control
5-HT secretion, Fold of control (mean ± S.E.M.) ([5]; pretreated 50 μM HC-030031): 9.02 ± 6.37 Fold of control
5-HT secretion, Fold of control (mean ± S.E.M.) ([5]; pretreated 100 μM RR): 3.60 ± 1.80 Fold of control
Inhibition (%) of CCK secretion ([6]; HC-030031 50 μM): 52.58%
Inhibition (%) of CCK secretion ([6]; RR 100 μM): 73.21%
CCK secretion, Fold of control (mean ± S.E.M.) ([6]; inhibitor: Untreated): 22.56 ± 0.65 Fold of control
CCK secretion, Fold of control (mean ± S.E.M.) ([6]; pretreated 50 μM HC-030031): 10.70 ± 0.92 Fold of control
CCK secretion, Fold of control (mean ± S.E.M.) ([6]; pretreated 100 μM RR): 6.04 ± 0.73 Fold of control
Change in Ca^2+ level, ΔRFU (mean ± S.E.M.) ([7]; 50 μM): 13.44 ± 1.78 ΔRFU
Change in Ca^2+ level, ΔRFU (mean ± S.E.M.) ([7]; 300 μM): 19.78 ± 4.08 ΔRFU
Change in Ca^2+ level, ΔRFU (mean ± S.E.M.) ([7]; 500 μM): 22.17 ± 3.65 ΔRFU
Inhibition (%) of Ca^2+ change ([8]; HC-030031 50 μM): 70.31%
Inhibition (%) of Ca^2+ change ([8]; RR 100 μM): 66.36%
Change in Ca^2+ level, ΔRFU (mean ± S.E.M.) ([8]; inhibitor: Untreated): 13.42 ± 1.08 ΔRFU
Change in Ca^2+ level, ΔRFU (mean ± S.E.M.) ([8]; pretreated 50 μM HC-030031): 3.98 ± 0.80 ΔRFU
Change in Ca^2+ level, ΔRFU (mean ± S.E.M.) ([8]; pretreated 100 μM RR): 4.51 ± 1.40 ΔRFU

[Cl-].[K+] [KCl]
Membrane potential change, ΔRFU (mean ± SEM) ([9]; 0.1 mM): 17.01 ± 0.93 ΔRFU
Membrane potential change, ΔRFU (mean ± SEM) ([9]; 1 mM): 35.08 ± 3.43 ΔRFU
Membrane potential change, ΔRFU (mean ± SEM) ([9]; 10 mM): 270.08 ± 9.57 ΔRFU

CCCCCCCC/C=C\CCCCCCCC(=O)NCCO [OEA (oleoylethanolamide), oleoylethanolamide]
GLP-1 secretion (fold of control) GPR119 siRNA ([10]; 20 μM, GPR119 siRNA): 2.975 ± 0.241 fold of control
GLP-1 secretion (fold of control) Control siRNA ([10]; 20 μM, control siRNA): 4.822 ± 0.358 fold of control
inhibition at 20 µM ([10]; NCI-H716): 38.3%
cAMP (fold of control) [11]: 6.813 ± 1.634 fold of control

— patent US10293009B2, “Pharmaceutical or food composition comprising Oldenlandia brachypoda, Spergularia marina, Disporum smilacinum, Persicaria posumbu, or Geum aleppicum” (KOREA FOOD RESEARCH INSTITUTE, priority 2012, dated 2019)
